Test system: p53
Test: Stabilisation of p53 (U343MG)
Type: cell-based, human
Conditions: due to reduction of p53 bonded to MDM2, not mRNA induction, FIG. 1

SMILES | Stabilisation of p53
CC(=O)OCC1=C(C(=O)OC(C)(C)C)N2C(=O)[C@@H](NC(=O)COc3ccc4c(c3)CCc3c-4[nH]c4ccc(F)cc34)[C@H]2SC1 [RM37, (6R, 7R)-tert-butyl-7-(2-(8-fluoro-6,11-dihydro-5H-benzo[a]carbazol-3-yloxy)acetamido)-3-(acetoxymethyl)-8-oxo-5-thia-1-azabicyclo[4.2.0]oct-2-ene-2-carboxylate] | stabilisation of p53

Test system: U343MG
Test: Effect on cell apoptosis (U343MG)
Type: cell-based, human
Conditions: FIG. 7 and FIG. 8
Protocol: 8) Effect of RM37 on cell apoptosis (U343MG; 1,2). […] The results are set out in FIG. 7 and FIG. 8.

SMILES | Effect on cell apoptosis
CC(=O)OCC1=C(C(=O)OC(C)(C)C)N2C(=O)[C@@H](NC(=O)COc3ccc4c(c3)CCc3c-4[nH]c4ccc(F)cc34)[C@H]2SC1 [RM37, (6R, 7R)-tert-butyl-7-(2-(8-fluoro-6,11-dihydro-5H-benzo[a]carbazol-3-yloxy)acetamido)-3-(acetoxymethyl)-8-oxo-5-thia-1-azabicyclo[4.2.0]oct-2-ene-2-carboxylate] | induces cell apoptosis

Test system: U343MG
Test: Effect on cell cycle (U343MG)
Type: cell-based, human
Conditions: FIG. 6
Protocol: 7) Effect of RM37 on cell cycle (U343MG; 1,2). […] The results are set out in FIG. 6.

SMILES | Effect on cell cycle
CC(=O)OCC1=C(C(=O)OC(C)(C)C)N2C(=O)[C@@H](NC(=O)COc3ccc4c(c3)CCc3c-4[nH]c4ccc(F)cc34)[C@H]2SC1 [RM37, (6R, 7R)-tert-butyl-7-(2-(8-fluoro-6,11-dihydro-5H-benzo[a]carbazol-3-yloxy)acetamido)-3-(acetoxymethyl)-8-oxo-5-thia-1-azabicyclo[4.2.0]oct-2-ene-2-carboxylate] | blocks the cell cycle in G1

Biological target: T1, p53/MDM2 complex (Homo sapiens, UniProt Q00987)
T1 construct: Test performed on cell lysate of human glioblastoma (GBM) cells U343MG; endogenous in cells; host or cells: U343MG human glioblastoma cells (lysate)
Test: Inhibitory effect on p53/MDM2 complex binding, cell lysate of human glioblastoma U343MG cells
Conditions: 10 uM; cell lysate of human glioblastoma (GBM) cells U343MG; read-out: % inhibition at 10 uM of p53/MDM2 complex binding
Protocol: Test performed on cell lysate of human glioblastoma (GBM) cells U343MG (1,2).

T1 sequence (Q00987 whole entry, one chain of several): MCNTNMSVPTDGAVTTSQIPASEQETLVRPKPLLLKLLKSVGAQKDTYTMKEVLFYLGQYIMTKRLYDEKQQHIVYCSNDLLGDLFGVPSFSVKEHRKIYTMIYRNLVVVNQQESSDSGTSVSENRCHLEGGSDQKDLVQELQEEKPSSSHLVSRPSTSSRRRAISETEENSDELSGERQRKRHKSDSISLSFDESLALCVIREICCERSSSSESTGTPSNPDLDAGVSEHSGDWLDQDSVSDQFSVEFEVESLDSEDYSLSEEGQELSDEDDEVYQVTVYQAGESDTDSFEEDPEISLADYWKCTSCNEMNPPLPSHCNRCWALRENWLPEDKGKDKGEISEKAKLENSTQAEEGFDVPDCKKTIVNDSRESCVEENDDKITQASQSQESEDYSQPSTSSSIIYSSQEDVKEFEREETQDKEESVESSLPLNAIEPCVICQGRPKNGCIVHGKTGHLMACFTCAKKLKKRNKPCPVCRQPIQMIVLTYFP

SMILES | inhibition at 10 µM
CCNC(=O)COc1ccc2c(c1)S(=O)(=O)Cc1c-2[nH]c2ccc(F)cc12 [RA13] | 22%
Clc1ccc2[nH]c3c(c2c1)COc1ccccc1-3 [RA15] | < 5%
COc1ccc2c(c1)-c1[nH]c3ccc(Cl)cc3c1CO2 [RA16] | < 5%
CC(=O)OCC1=C(C(=O)O)N2C(=O)[C@@H](NC(=O)COc3ccc4c(c3)CCc3c-4[nH]c4ccc(F)cc34)[C@H]2SC1 [RM53, (6R,7R)-7-(2-[(8-fluoro-6,11-dihydro-5H-benzo[a]carbazol-3-yl)oxy]acetamido)-3-(acetoxymethyl)-8-oxy-5-thia-1-azabicyclo[4.2.0]oct-2-ene-2-carboxylic acid] | < 5%
CN(C)CCCn1c2ccc(Cl)cc2c2ccc3cc(OCC(=O)O)ccc3c21 [RM58] | 58%

Same assay, conditions: cell lysate of human glioblastoma (GBM) cells U343MG

IC50 | SMILES
280 ± 20 nM | CC(=O)OCC1=C(C(=O)OC(C)(C)C)N2C(=O)C(NC(=O)COc3ccc4c(c3)CCc3c-4[nH]c4ccc(Cl)cc34)C2SC1 (stereo not shown) [RM36]
222 ± 210 nM | CC(=O)OCC1=C(C(=O)OC(C)(C)C)N2C(=O)C(NC(=O)COc3ccc4c(c3)/C(=N\O)Cc3c-4[nH]c4ccc(F)cc34)C2SC1 (stereo not shown) [RM38]
232 ± 200 nM | CC(=O)OCC1=C(C(=O)OC(C)(C)C)N2C(=O)C(NC(=O)COc3ccc4c(c3)C(=O)Cc3c-4[nH]c4ccc(C(F)(F)F)cc34)C2SC1 (stereo not shown) [RM39]
228 ± 16 nM | COc1ccc(COC(=O)C2N3C(=O)C(NC(=O)COc4ccc5c(c4)S(=O)(=O)CCc4c-5[nH]c5ccc(F)cc45)C3SC2(C)C)cc1 (stereo not shown) [RM43]
195 ± 22 nM | CC(=O)OCC1=C(C(=O)OC(C)(C)C)N2C(=O)C(NC(=O)COc3ccc4c(c3)CCc3c-4[nH]c4ccc(Br)cc34)C2SC1 (stereo not shown) [RM47]
2700 ± 120 nM | CCOC(=O)/C(COc1ccc2c(ccc3c4cc(Cl)ccc4n(CCCN(C)C)c23)c1)=N/OC [RM66]

More lines, now with the values behind:

SMILES | IC50
CC(=O)OCC1=C(C(=O)OC(C)(C)C)N2C(=O)[C@@H](NC(=O)COc3ccc4c(c3)CCc3c-4[nH]c4cccc([N+](=O)[O-])c34)[C@H]2SC1 [GA09a] | 650 ± 50 nM
CC(=O)OCC1=C(C(=O)OC(C)(C)C)N2C(=O)[C@@H](NC(=O)COc3ccc4c(c3)CCc3c-4[nH]c4cc([N+](=O)[O-])ccc34)[C@H]2SC1 [GA09b] | 225 ± 20 nM
COc1cc2c(cc1OC)-c1c(c3c(N)cccc3n1CCCN(C)C)CCC2 [GA17M8] | 12700 ± 1500 nM
O=C(COc1ccc2c(c1)S(=O)(=O)CCc1c-2[nH]c2ccc(F)cc12)NCc1ccc(F)c(F)c1 [RA1] | 920 ± 20 nM
COc1ccc2[nH]c3c(c2c1)CCCc1cc(OCC(=O)O)ccc1-3 [RA2] | 2900 ± 120 nM
CN(C)C(=O)C(CCCNC(=O)OCc1ccccc1)NC(=O)COc1ccc2c(c1)S(=O)(=O)NCc1c-2[nH]c2ccc(F)cc12 (stereo not shown) [RA3] | 620 ± 50 nM
CNC(=O)C(CCCNC(=O)OCc1ccccc1)NC(=O)COc1ccc2c(c1)OCc1c-2[nH]c2ccc(F)cc12 (stereo not shown) [RA18] | 1350 ± 150 nM
CNC(=O)C(CCCNC(=O)OCc1ccccc1)NC(=O)COc1ccc2c(c1)OCc1c-2[nH]c2ccc(OCC(=O)NC(CCc3ccccc3)C(=O)N(C)C)cc12 (stereo not shown) [RA19] | 450 ± 15 nM
CNC(=O)C(CCCNC(=O)OCc1ccccc1)NC(=O)COc1ccc2c(c1)NCc1c-2[nH]c2ccc(F)cc12 (stereo not shown) [RA20] | 1550 ± 250 nM
CC(=O)OCC1=C(C(=O)OC(C)(C)C)N2C(=O)C(NC(=O)COc3ccc4c(c3)S(=O)(=O)Cc3c-4[nH]c4ccc(F)cc34)C2SC1 (stereo not shown) [RA25] | 143 ± 16 nM
COc1ccc(COC(=O)C2N3C(=O)C(NC(=O)COc4ccc5c(c4)S(=O)(=O)Nc4c-5[nH]c5ccc(Br)cc45)C3SC2(C)C)cc1 (stereo not shown) [RA26] | 120 ± 90 nM
CCNC(=O)CO/N=C1/Cc2c([nH]c3ccc(F)cc23)-c2ccc(OCC(=O)NC3C(=O)N4C3SC(C)(C)C4C(=O)OCc3ccc(OC)cc3)cc21 (stereo not shown) [RA29] | 100 ± 30 nM
CCNC(=O)C(CCCNC(=O)OCc1ccccc1)NC(=O)CC1C(NC(=O)COc2ccc3c(c2)S(=O)(=O)Cc2c-3[nH]c3ccc(F)cc23)C(=O)N1CC(=O)OCc1ccc(OC)cc1 (stereo not shown) [RA30] | 150 ± 10 nM
CC(=O)OCC1=C(C(=O)OC(C)(C)C)N2C(=O)C(NC(=O)COc3ccc4c(c3)OCc3c-4[nH]c4ccc(F)cc34)C2S(=O)(=O)C1 (stereo not shown) [RA31] | 120 ± 45 nM
COc1ccc(COC(=O)C2N3C(=O)C(NC(=O)COc4ccc5c(c4)OCc4c-5[nH]c5ccc(Br)cc45)C3SC2(C)C)cc1 (stereo not shown) [RA35] | 375 ± 22 nM
CC(=O)OCC1=C(C(=O)OC(C)(C)C)N2C(=O)C(NC(=O)COc3ccc4c(c3)S(=O)(=O)Nc3c-4[nH]c4ccc(F)cc34)C2SC1 (stereo not shown) [RA36] | 220 ± 100 nM
CCOC(=O)CO/N=C1/Cc2c([nH]c3ccc(F)cc23)-c2ccc(OCC(=O)NC3C(=O)N4C(C(=O)OC(C)(C)C)=C(COC(C)=O)CSC34)cc21 (stereo not shown) [RA37] | 180 ± 150 nM
CC(=O)OCC1=C(C(=O)OC(C)(C)C)N2C(=O)C(NC(=O)COc3ccc4c(c3)S(=O)(=O)NCc3c-4[nH]c4ccc(F)cc34)C2SC1 (stereo not shown) [RA40] | 197 ± 124 nM
CC(C)(C)OC(=O)C1N2C(=O)C(NC(=O)COc3ccc4c(c3)S(=O)(=O)NCc3c-4[nH]c4ccc(F)cc34)C2SC1(C)C (stereo not shown) [RA42] | 292 ± 25 nM
CCNC(=O)C(CCCNC(=O)OCc1ccccc1)NC(=O)CC1C(NC(=O)COc2ccc3c(c2)S(=O)(=O)NCc2c-3[nH]c3ccc(F)cc23)C(=O)N1CC(=O)OCc1ccc(OC)cc1 (stereo not shown) [RA44] | 223 ± 22 nM
CC(=O)OCC1=C(C(=O)OC(C)(C)C)N2C(=O)[C@@H](NC(=O)COc3ccc4c(c3)CCc3c-4[nH]c4ccc(F)cc34)[C@H]2SC1 [RM37, (6R, 7R)-tert-butyl-7-(2-(8-fluoro-6,11-dihydro-5H-benzo[a]carbazol-3-yloxy)acetamido)-3-(acetoxymethyl)-8-oxo-5-thia-1-azabicyclo[4.2.0]oct-2-ene-2-carboxylate] | 222 ± 44 nM

Same assay, conditions: read-out: % inhibition at 10 uM of p53/MDM2 complex binding

SMILES | inhibition at 10 µM
COC(=O)C(NC(=O)COc1ccc2c(ccc3c4cc(Cl)ccc4n(CCCN(C)C)c23)c1)c1ccccc1 (stereo not shown) [RM85] | 82%

Test system: protein p53
Test: Stabilisation of intracellular levels of protein p53 (343MG)
Type: cell-based, human
Conditions: U343MG; FIG. 3
Text: 1) Costa, B; Grillone, A F; Salvetti, A; Rocchiccioli, S; Iacopetti, P; Daniele, S; Da Pozzo, E; Campiglia, P; Novellino, E; Martini, C; Rossi, L An antibody-free strategy for screening putative HDM2 inhibitors using crude bacterial lysates expressing GST-HDM2 recombinant protein Drug Testing and Analysis (2013), 5, 7, 596-601.
2) Costa B, Bendinelli S, Gabelloni P, Da Pozzo E, Daniele S, et al. Human Glioblastoma Multiforme: p53 Reactivation by a Novel MDM2 Inhibitor. PLoS ONE (2013) 8(8): e72281. doi:10.1371/journal.pone.0072281.
The results are set out in FIG. 3.

SMILES | Stabilisation of intracellular levels of protein p53
CC(=O)OCC1=C(C(=O)OC(C)(C)C)N2C(=O)[C@@H](NC(=O)COc3ccc4c(c3)CCc3c-4[nH]c4ccc(F)cc34)[C@H]2SC1 [RM37, (6R, 7R)-tert-butyl-7-(2-(8-fluoro-6,11-dihydro-5H-benzo[a]carbazol-3-yloxy)acetamido)-3-(acetoxymethyl)-8-oxo-5-thia-1-azabicyclo[4.2.0]oct-2-ene-2-carboxylate] | stabilises the intracellular levels of protein p53

— patent US20200299306A1, “COMPOUNDS WITH A BENZO[A]CARBAZOLE STRUCTURE AND USE THEREOF” (UNIVERSITA' DI PISA, priority 2017, published 2020)
